Several values for one entry are separate records, joined by “and”; a condition that tells them apart may be missing. Identical values can stand only once.
Experiments:
[1] = system: antibody for angiotensin I; assay: Radioimmunoassay standard reactions: competitive binding of labeled and unlabeled angiotensin I to antibody; design: species or system rabbit
Procedure: Antiserum (Rabbit) 1.4 μl
A series of standard prereaction mixtures was prepared by transferring 0.1 ml aliquots of standard unlabeled angiotensin I solutions from the standard vials to a series of reaction vials. Standard prereaction mixtures were prepared using the standard solutions containing 6, 3, 2, 1, 0.8, 0.6, and 0.3 ng/ml unlabeled angiotensin I, respectively. Two blank prereaction mixtures were prepared by adding 0.1 ml pH 9.0 buffer to a reaction vial.
Reaction mixtures were prepared and radioimmunoassay commenced by adding antiserum solution (0.1 ml) to each of the base unknown, generated unknown, standard, and blank prereaction mixtures. Antiserum was withheld from one reaction vial used as a control. The reaction mixtures contained in each vial were then mixed gently on a vortex and incubated for 1 hour at 37°C. After incubation was completed, each reaction vial was taken out of the water bath, the cap removed and an anion exchange resin strip immersed in the contents of the vial. The vial was then recapped and placed on a rotator for 30 minutes at room temperature (21°-23°C.). At the end of 30 minutes, the resin strip was removed from each vial and placed in an empty vial. Radioactivity of both the strip containing the unbound ("free") angiotensin I and the supernatant liquid containing the antibody bound ("bound") angiotensin I was counted, and the percentage bound angiotensin I was determined from the following relationship: [formula]
From the data of Tables I and II, a graph was prepared in which the percent bound angiotensin I was plotted against nanograms of unlabeled standard angiotensin I contained in the standard reaction solutions for the two sets of standard reactions. FIG. 1 is that graph. […]
Standard radioimmunoassay reactions were carried out using duplicate blanks and standard solutions respectively containing 0.03, 0.06, 0.08, 0.1, 0.2, 0.3 and 0.6 ng. unlabeled angiotensin I per ml. A control was also run in which no antiserum was added to the prereaction mixture. The procedure of Example 2 was followed, except that the temperature and period of incubation of the radioimmunoassay reaction were varied. The following combinations of time and temperature were utilized for these standard radioimmunoassay reactions: […]

[2] = system: angiotensinogen; assay: Plasma renin activity, as angiotensin I generation rate; assay type: biochemical, human
Procedure: Blood was drawn from patient three into a tube coated with EDTA and the plasma separated by centrifugation and cooled to 4°C. To one ml. of the cold plasma were added portions of 8-hydroxyquinoline inhibiting solution (10 μl) and dimercaprol inhibiting solution (10 μl). The resulting unknown plasma sample was transferred to a generation vial containing generation buffer solution and mixed.
The generation vial was placed in a water bath controlled at 37°C. and generation was carried out for 3 hours. At the end of this time, the generated unknown sample was removed from the water bath, cooled in an ice bath, and three 100 μl aliquots thereof transferred to three reaction vials to provide three generated unknown radioimmunoassay prereaction mixtures containing generated plasma, human serum albumin, sodium azide preservative, HCl, and ^125 I labeled angiotensin I.
The renin activity of patient three's plasma was indicated by the angiotensin I generation rate determined from the following relationship: [formula] The factor of 30 is used because the plasma is initially diluted three-fold, and only 0.1 ml of the dilute plasma is used in the radioimmunoassay, while the angiotensin I generation rate is based on 1 ml.
Another sample of patient three's plasma was assayed in the manner described in Example 2, except that 2,2-dimethyl glutaric acid was used in place of potassium acid phthalate as the buffering component of the generation mixture. Results of radioactivity counting on the base and generated radioimmunoassay reaction mixtures obtained in the assay of this example are set forth in Table IV.
Following the procedure described in Example 2, a renin activity radioimmunoassay was conducted on the plasma of patient two. The results of radioactive counting and the percent bound antigen for the duplicate standard radioimmunoassay reaction mixture are set forth in Tables V and VI.
Another sample of patient two's plasma was assayed in the manner described in Example 4, except that 2,2-dimethylglutaric acid was used in place of potassium acid phthalate as a buffering component of the generation mixture. Results of radioactive counting on the base and generated radioimmunoassay mixtures obtained in the assay of this example are set forth in Table VIII.
A renin activity radioimmunoassay was conducted on the plasma of patient one. The procedure described in Example 2 was followed except that only one set of reactions was carried out in establishing the standard curve. Results of radioactive counting and the percent bound antigen for the standard radioimmunoassay reaction mixtures are set forth in Table IX.
Another sample of patient one's plasma was assayed in the manner described in Example 6, except that 2,2-dimethylglutaric acid was used in place of potassium acid phthalate as the buffering component of the generation mixture. Results of radioactivity counting on the base and generated radioimmunoassay reaction mixtures, together with the angiotensin I content of the ungenerated and generated samples, are set forth in Table XI.

Angiotensin I: decapeptide formed from angiotensinogen by renin; unlabeled standard in the radioimmunoassay (DRVYIHPFHL; Angiotensin-1; UniProt P01019 25-34, looked up)
% Bound labeled angiotensin I ([1]; 0.03 ng unlabeled angiotensin I standard, 12°C, 1 hour): 38.3%
% Bound labeled angiotensin I ([1]; 0.03 ng unlabeled angiotensin I standard, 12°C, 5 hours): 60.8%
% Bound labeled angiotensin I ([1]; 0.03 ng unlabeled angiotensin I standard, 20°C, 1 hour): 46.52%
% Bound labeled angiotensin I ([1]; 0.03 ng unlabeled angiotensin I standard, 20°C, 5 hours): 64.22%
% Bound labeled angiotensin I ([1]; 0.03 ng unlabeled angiotensin I standard, 37°C, 1 hour): 56.33% and 55.20% and 54.06% and 54.27% and 56.75% and 54.34%
% Bound labeled angiotensin I ([1]; 0.06 ng unlabeled angiotensin I standard, 12°C, 1 hour): 36.6%
% Bound labeled angiotensin I ([1]; 0.06 ng unlabeled angiotensin I standard, 12°C, 5 hours): 52.9%
% Bound labeled angiotensin I ([1]; 0.06 ng unlabeled angiotensin I standard, 20°C, 1 hour): 43.88%
% Bound labeled angiotensin I ([1]; 0.06 ng unlabeled angiotensin I standard, 20°C, 5 hours): 62.08%
% Bound labeled angiotensin I ([1]; 0.06 ng unlabeled angiotensin I standard, 37°C, 1 hour): 50.77% and 53.62% and 49.30% and 49.16% and 52.76% and 49.86%
% Bound labeled angiotensin I ([1]; 0.08 ng unlabeled angiotensin I standard, 12°C, 1 hour): 34.7%
% Bound labeled angiotensin I ([1]; 0.08 ng unlabeled angiotensin I standard, 12°C, 5 hours): 50.4%
% Bound labeled angiotensin I ([1]; 0.08 ng unlabeled angiotensin I standard, 20°C, 1 hour): 37.90%
% Bound labeled angiotensin I ([1]; 0.08 ng unlabeled angiotensin I standard, 20°C, 5 hours): 53.73%
% Bound labeled angiotensin I ([1]; 0.08 ng unlabeled angiotensin I standard, 37°C, 1 hour): 49.01% and 48.63% and 48.16% and 48.27% and 48.93% and 45.64%
% Bound labeled angiotensin I ([1]; 0.1 ng unlabeled angiotensin I standard, 12°C, 1 hour): 34.3%
% Bound labeled angiotensin I ([1]; 0.1 ng unlabeled angiotensin I standard, 12°C, 5 hours): 47.5%
% Bound labeled angiotensin I ([1]; 0.1 ng unlabeled angiotensin I standard, 20°C, 1 hour): 40.23%
% Bound labeled angiotensin I ([1]; 0.1 ng unlabeled angiotensin I standard, 20°C, 5 hours): 50.27%
% Bound labeled angiotensin I ([1]; 0.1 ng unlabeled angiotensin I standard, 37°C, 1 hour): 45.93% and 45.19% and 45.21% and 43.12% and 46.72% and 42.96%
% Bound labeled angiotensin I ([1]; 0.2 ng unlabeled angiotensin I standard, 12°C, 1 hour): 27.2%
% Bound labeled angiotensin I ([1]; 0.2 ng unlabeled angiotensin I standard, 12°C, 5 hours): 34.1%
% Bound labeled angiotensin I ([1]; 0.2 ng unlabeled angiotensin I standard, 20°C, 1 hour): 31.21%
% Bound labeled angiotensin I ([1]; 0.2 ng unlabeled angiotensin I standard, 20°C, 5 hours): 32.23%
% Bound labeled angiotensin I ([1]; 0.2 ng unlabeled angiotensin I standard, 37°C, 1 hour): 35.75% and 35.05% and 29.50% and 28.39% and 34.97% and 30.79%
% Bound labeled angiotensin I ([1]; 0.3 ng unlabeled angiotensin I standard, 12°C, 1 hour): 25.8%
% Bound labeled angiotensin I ([1]; 0.3 ng unlabeled angiotensin I standard, 12°C, 5 hours): 24.4%
% Bound labeled angiotensin I ([1]; 0.3 ng unlabeled angiotensin I standard, 20°C, 1 hour): 23.71%
% Bound labeled angiotensin I ([1]; 0.3 ng unlabeled angiotensin I standard, 20°C, 5 hours): 25.25%
% Bound labeled angiotensin I ([1]; 0.3 ng unlabeled angiotensin I standard, 37°C, 1 hour): 29.47% and 31.32% and 28.06% and 26.30% and 27.55% and 27.52%
% Bound labeled angiotensin I ([1]; 0.6 ng unlabeled angiotensin I standard, 12°C, 1 hour): 15.9%
% Bound labeled angiotensin I ([1]; 0.6 ng unlabeled angiotensin I standard, 12°C, 5 hours): 16.6%
% Bound labeled angiotensin I ([1]; 0.6 ng unlabeled angiotensin I standard, 20°C, 1 hour): 15.54%
% Bound labeled angiotensin I ([1]; 0.6 ng unlabeled angiotensin I standard, 20°C, 5 hours): 15.0%
% Bound labeled angiotensin I ([1]; 0.6 ng unlabeled angiotensin I standard, 37°C, 1 hour): 17.21% and 16.50% and 17.98% and 17.40% and 17.61% and 16.72%

B1: Renin: proteolytic enzyme secreted by juxtaglomerular cells in the kidney (protein, UniProt P00797 67-406, looked up)
Renin: LTLGNTTSSVILTNYMDTQYYGEIGIGTPPQTFKVVFDTGSSNVWVPSSKCSRLYTACVYHKLFDASDSSSYKHNGTELTLRYSTGTVSGFLSQDIITVGGITVTQMFGEVTEMPALPFMLAEFDGVVGMGFIEQAIGRVTPIFDNIISQGVLKEDVFSFYYNRDSENSQSLGGQIVLGGSDPQHYEGNFHYINLIKTGVWQIQMKGVSVGSSTLLCEDGCLALVDTGASYISGSTSSIEKLMEALGAKKRLFDYVVKCNEGPTLPDISFHLGGKEYTLTSADYVFQESYSSKKLCTLAIHAMDIPPPTGPTWALGATFIRKFYTEFDRRNNRIGFALAR
Renin activity ([2]; patient one plasma, glutarate generation buffer): 1.31 ng/mL/h
Renin activity ([2]; patient one plasma, phthalate generation buffer): 0.849 ng/mL/h
Renin activity ([2]; patient three plasma, glutarate generation buffer): 0.7 ng angiotensin I/ml/hr
Renin activity ([2]; patient three plasma, phthalate generation buffer): 0.42 ng/mL/h
Renin activity ([2]; patient two plasma, glutarate generation buffer): 2.91 ng/mL/h
Renin activity ([2]; patient two plasma, phthalate generation buffer): 1.41 ng Angiotensin I/ml/hr

Source: US3966896A, “Radioimmunoassay for plasma renin activity” (Mallinckrodt, Inc., priority 1974, dated 1976)
